# From patent US9661850B2, “Methods of soil pest control” (Syngenta Participations AG, priority 2012, dated 2017)
# Columns and labels:
# Type in all cases: in vivo
# [1] = system: Diabrotica balteata (Corn Rootworm); assay: Diabrotica balteata seed treatment test, larval mortality; conditions: treated corn seeds, L3 larvae, 6 days incubation
# Experimental: Diabrotica Balteata (Corn Rootworm)
# Treated corn seeds are sown in a 350 ml pot filled with soil. Two weeks after sowing corn seedlings are infested with L3 larvae of Diabrotica balteata. After an incubation period of 6 days survived larvae are counted.
# Agriotes sp. (Wireworms) [2] = assay: Agriotes sp. (wireworms) drench soil test with maize seedlings; conditions: 14 days after treatment
# Experimental: Plastic beakers are prepared with 100 ml drench soil. Afterwards 12.5 ml compound solution is mixed in each plastic beaker and three maize seedlings are added. At the same day five wireworms are placed into each plastic beaker and these are covered up with a lid. Fourteen days after treatment the number of dead and moribund wireworms are evaluated. Wireworms are assessed as moribund if they were not able to bury into the soil in one hour after having been put onto the soil surface.
# Agriotes sp. (Wireworms) [3] = assay: Agriotes sp. (wireworms) seed treatment test; conditions: treated corn seeds, 1 mg/seed, 14 days incubation
# Experimental: Treated corn seeds are sown in a 350 ml pot filled with soil. One week after sowing corn seedlings are infested with wireworms. After an incubation period of 14 days healthy and affected larvae (intoxicated, moribund, dead) are counted.
# [4] = system: Diabrotica balteata (Corn Rootworm); assay: Diabrotica balteata seed treatment, plant damage on maize; conditions: L2 larvae, 6 days after infestation
# Experimental: (§1) Diabrotica Balteata (Corn Rootworm):
# (§2) Plastic boxes (17×27×22 cm) are filled with 8 L of drench soil and 6 maize seeds are sown into a furrow. 10 ml of spray solution are applied with a hand sprayer into the furrow on the planted seeds and the furrow is closed afterwards. Two weeks after sowing each box is infested with 15 Diabrotica balteata L2 larvae. 6 days after infestation the plant damage is assessed. Plants are considered as either damaged or healthy. Dead plants, plants with hollow stems or entry holes are considered as damaged. The test is carried out with five replicates (boxes) per treatment. For in-furrow application the control is replicated five times with the application of water.
# For the assessment as seed treatment 6 treated seeds are planted 0.5 cm deep into the soil. Exactly the same setup is used as with the in furrow treatment described above except that no spray solution is applied. For seed treatment the control is replicated five times without seed coating.
# (§3) As six seeds are used per replicate, the total amount of active ingredient applied in furrow is six times the rate per seed in the seed treatment test.
# [5] = system: Diabrotica balteata (Corn Rootworm); assay: Diabrotica balteata in-furrow application, plant damage on maize; conditions: L2 larvae, 6 days after infestation
# Experimental: as §1, §2, §3
Structure (SMILES),% Larval mortality ([1]; 1 mg/seed) [%],% Larval mortality ([1]; 0.3 mg/seed) [%],also measured
CCN1OCC(NC(=O)c2ccc(C3=NCC(c4cc(Cl)c(Cl)c(Cl)c4)(C(F)(F)F)C3)cc2C)C1=O (racemic) [Compound C3],100,–,–
CCN1OC[C@@H](NC(=O)c2ccc(C3=NO[C@@](c4cc(Cl)c(Cl)c(Cl)c4)(C(F)(F)F)C3)cc2C)C1=O [Compound A19],100,–,–
CCN1OCC(NC(=O)c2ccc(C3=NCC(c4cc(Cl)cc(Cl)c4)(C(F)(F)F)C3)cc2C)C1=O (stereo not drawn) [Compound C2],50,–,–
CCN1OCC(NC(=O)c2ccc(C3=NOC(c4cc(Cl)cc(Cl)c4)(C(F)(F)F)C3)cc2C)C1=O (mixture of isomers) [Compound A9],–,–,% Moribund & dead (Agriotes sp. (Wireworms) [2]; application rate 0.8 ppm): 50%; % Moribund & dead (Agriotes sp. (Wireworms) [2]; application rate 3 ppm): 75%; % Moribund & dead (Agriotes sp. (Wireworms) [2]; application rate 12.5 ppm): 100%; % Mortality and moribund/intoxicated (Agriotes sp. (Wireworms) [3]): 25%
CCN1OCC(NC(=O)c2ccc(C3=NOC(c4cc(Cl)c(F)c(Cl)c4)(C(F)(F)F)C3)cc2C)C1=O (mixture of isomers) [Compound A5],–,96,–
Cc1cc(C2=NO[C@@](c3cc(Cl)cc(Cl)c3)(C(F)(F)F)C2)ccc1C(=O)N[C@@H]1CON(CC(F)F)C1=O [Compound A14],100,–,–
Cc1cc(C2=NCC(c3cc(Cl)cc(Cl)c3)(C(F)(F)F)C2)ccc1C(=O)NC1CON(CC(F)(F)F)C1=O (stereo not drawn) [Compound C1],100,–,–
CCN1OCC(NC(=O)c2ccc(C3=NOC(c4cc(C(F)(F)F)c(Cl)c(C(F)(F)F)c4)(C(F)(F)F)C3)cc2C)C1=O (mixture of isomers) [Compound A15],–,100,–
Cc1cc(C2=NO[C@@](c3cc(Cl)c(Cl)c(Cl)c3)(C(F)(F)F)C2)ccc1C(=O)N[C@@H]1CON(CC(F)(F)F)C1=O [Compound A21],100,–,–
Cc1cc(C2=NO[C@@](c3cc(Cl)cc(Cl)c3)(C(F)(F)F)C2)ccc1C(=O)N[C@@H]1CON(CC(F)(F)F)C1=O [Compound 1],–,–,Reduction in plant damage compared to control (seed treatment) ([4]; 0.1 mg AI per seed): 25%; Reduction in plant damage compared to control (seed treatment) ([4]; 0.5 mg AI per seed): 50%; Reduction in plant damage compared to control (in-furrow application) ([5]; 0.1 mg AI per seed): 67%; Reduction in plant damage compared to control (in-furrow application) ([5]; 0.5 mg AI per seed): 95%
CCN1OC[C@@H](NC(=O)c2ccc(C3=NO[C@@](c4cc(Cl)cc(C(F)(F)F)c4)(C(F)(F)F)C3)cc2C)C1=O [Compound A12],–,88,–
Cc1cc(C2=NOC(c3cc(Cl)c(Cl)c(Cl)c3)(C(F)(F)F)C2)ccc1C(=O)NC1CON(CC(F)(F)F)C1=O (mixture of isomers) [Compound A1],–,87,–
CCN1OCC(NC(=O)c2ccc(C3=NOC(c4cc(F)cc(Cl)c4)(C(F)(F)F)C3)cc2C)C1=O (mixture of isomers) [Compound A22],92,–,–
CCN1OCC(NC(=O)c2ccc(C3=NOC(c4cc(Cl)c(Cl)c(Cl)c4)(C(F)(F)F)C3)cc2C)C1=O (mixture of isomers) [Compound A23],100,–,–
CCN1OC[C@@H](NC(=O)c2ccc(C3=NO[C@@](c4cc(Cl)cc(Br)c4)(C(F)(F)F)C3)cc2C)C1=O [Compound A11],100,–,–
Cc1cc(C2=NOC(c3cc(Cl)cc(Cl)c3)(C(F)(F)F)C2)ccc1C(=O)NC1CON(C)C1=O (mixture of isomers) [Compound A2],–,96,–
Cc1cc(C2=NO[C@@](c3cc(Cl)c(F)c(Cl)c3)(C(F)(F)F)C2)ccc1C(=O)N[C@@H]1CON(CC(F)(F)F)C1=O [Compound A20],100,–,–
CCN1OC[C@@H](NC(=O)c2ccc(C3=NO[C@@](c4cc(Cl)cc(Cl)c4)(C(F)(F)F)C3)cc2C)C1=O [Compound A17],83,–,% Moribund & dead (Agriotes sp. (Wireworms) [2]; application rate 0.8 ppm): 100%; % Moribund & dead (Agriotes sp. (Wireworms) [2]; application rate 3 ppm): 100%; % Moribund & dead (Agriotes sp. (Wireworms) [2]; application rate 12.5 ppm): 100%; % Mortality and moribund/intoxicated (Agriotes sp. (Wireworms) [3]): 80%
Cc1cc(C2=NOC(c3cc(Cl)cc(Cl)c3)(C(F)(F)F)C2)ccc1C(=O)NC1CON(CC(F)(F)F)C1=O (mixture of isomers) [Compound A8],–,79,% Mortality and moribund/intoxicated (Agriotes sp. (Wireworms) [3]): 100%
CCN1OC[C@@H](NC(=O)c2ccc(C3=NO[C@@](c4cc(Cl)c(F)c(Cl)c4)(C(F)(F)F)C3)cc2C)C1=O [Compound 2],–,–,Reduction in plant damage compared to control (seed treatment) ([4]; 0.1 mg AI per seed): 35%; Reduction in plant damage compared to control (seed treatment) ([4]; 0.5 mg AI per seed): 75%; Reduction in plant damage compared to control (in-furrow application) ([5]; 0.1 mg AI per seed): 95%; Reduction in plant damage compared to control (in-furrow application) ([5]; 0.5 mg AI per seed): 91%
Cc1cc(C2=NO[C@@](c3cc(Cl)cc(Cl)c3)(C(F)(F)F)C2)ccc1C(=O)N[C@@H]1CON(CC(F)(F)F)C1=O [Compound A16],100,–,% Moribund & dead (Agriotes sp. (Wireworms) [2]; application rate 0.8 ppm): 100%; % Moribund & dead (Agriotes sp. (Wireworms) [2]; application rate 3 ppm): 100%; % Moribund & dead (Agriotes sp. (Wireworms) [2]; application rate 12.5 ppm): 100%; % Mortality and moribund/intoxicated (Agriotes sp. (Wireworms) [3]): 100%
Cc1cc(C2=NOC(c3cc(Cl)cc(Cl)c3)(C(F)(F)F)C2)ccc1C(=O)NC1CON(CC(F)F)C1=O (mixture of isomers) [Compound A6],–,87,–
Cc1cc(N2CCC(c3cc(Cl)cc(Cl)c3)(C(F)(F)F)C2)ccc1C(=O)NC1CON(CC(F)(F)F)C1=O (racemic) [Compound D1],–,83,–
CCN1OC[C@@H](NC(=O)c2ccc(C3=NO[C@@](c4cc(Cl)c(F)c(Cl)c4)(C(F)(F)F)C3)cc2C)C1=O [Compound A18],–,96,–
